Measurements from PubChem BioAssay AID1918952 (Molecular Pharmacology Branch, DTP, NCI, 2023).
Values joined by “and” are separate entries in the source; they are usually repeats but may differ in a detail not shown here. Identical values can stand only once.

Test system: LG0703-F948-PDC complex spheroid viability
Assay: Anticancer human tumor LG0703-F948-PDC patient-derived lung adenocarcinoma cell line growth inhibition
Conditions: for viability, T/C: stronger effect = lower value; active = viability on the fitted dose curve at most 10% of control; inactive = the rest
Text: Multicellular complex tumor spheroid response to LSD1 Inhibitor Iadademstat in combination with a variety of drugs and investigational agents in selected tumor cell lines
The current study was undertaken to assess response to LSD1 inhibitors in combination with standard-of-care drugs and investigational agents in solid tumor complex spheroid models as well as in the K-562 leukemia. Complex spheroids include a stromal component modeled by human endothelial cells (HUVEC) and fibroblasts modeled by human mesenchymal stem cells (MSCs). The concentration ranges selected for each drug and investigational agent were based upon clinically achievable concentrations if the clinical Cmax of the agent was known.
Compounds. The drugs and investigational agents used in this study are listed on Table 1. All of the agents used, including staurosporine (NSC755774) and gemcitabine (NSC613327), were obtained from the Developmental Therapeutics Program, NCI. FDA-approved anticancer drugs are available from the NCI at http://dtp.nci.nih.gov/branches/dscb/oncology_drugset_explanation.html. Drugs and investigational agents were >95% pure by proton nuclear magnetic resonance (NMR) and liquid chromatography/mass spectrometry (LC/MS). Stock solutions were prepared at 400x in DMSO, stored at -70 degrees C, and diluted in fresh medium prior to their use. The final concentration of DMSO in cell culture wells never exceeded 0.25% (v/v). The FDA-approved anticancer drug set is available from the Developmental Therapeutics Program at https://dtp.cancer.gov/organization/dscb/obtaining/available_plates.htm. All drugs and investigational agents were tested over a range starting from a high concentration at or near the clinical Cmax and decreasing in half-log increments. If the clinical Cmax for an agent had not been determined, the highest concentration tested was 10 microM.
Cell Lines. The patient-derived cancer cell (PDC) lines: 292921-168-R-J2-PDC, K24384-001-R-PDC, and 521955-158-R2-J5-PDC pancreatic carcinomas, 556581-035-R-J1 ovarian carcinoma, 324938-238-R-J1-PDC, 855422-203-R-J1-PDC and 883617-216-R-J1-PDC urothelial bladder carcinomas, 743489-274-T-PDC renal cell carcinoma, 138582-R-J1 Merkel cell tumor, K60290-347-R-J1 and K57222-313-R-J1-PDC glioblastomas, 653999-131-R-J2-PDC, LG0703-F948-PDC, and 349418-098-R-PDC non-small cell lung carcinomas, 885512-296-R-J2-PDC, 171881-019-R-J1-PDC breast carcinomas and 186277-243-T-J2-PDC and 233499-124-R-J2-PDC colon carcinomas were obtained from the NCI Patient-Derived Models Repository (PDMR, https://pdmr.cancer.gov). The established cell lines NCI/ADR-RES (RRID:CVCL_14520 and OVCAR-5 (RRID:CVCL_1628) ovarian carcinomas, 786-O (RRID:CVCL_1051) and A498 (RRID:CVCL_A498) renal cell carcinoma, NCI-H211 (ATCC, cat. CRL-5824; RRID:CVCL_1529), NCI-H196 (ATCC, cat. CRL-5823, RRID:CVCL_1509), SW 1271 (ATCC, cat. CRL-2177, RRID:CVCL_1716) and NCI-H1876 (ATCC, cat. CRL-5902, RRID:CVCL_1503) small cell lung carcinomas, MDA-MB-231 (RRID:CVCL_0062) and MDA-MB-468 (RRID:CVCL_0419)breast carcinomas (10-12). Pooled donor human umbilical vein endothelial cells (HUVEC, Lonza, cat. CC-2519) and human mesenchymal stem cells (hMSC, Lonza, cat. PT-2501) were purchased from Lonza (Walkersville, MD).
Cell Culture. All cells were maintained in an incubator at 37 degrees C and 5% CO2 with 95% humidity. The PDC lines were cultured according to standard operating procedures established by the NCI PDMR (https://pdmr.cancer.gov). Briefly all PDCs were thawed and cultured in Matrigel-coated flasks prepared with a working solution of 1X Ham's F-12 nutrient mix, without supplementation (Invitrogen, Waltham, MA, cat. 11765054), 100 U/mL penicillin-streptomycin (Invitrogen, cat. 15140122), and 2.5% Matrigel (Corning Inc., Corning, NY, cat. 354248) for the first three passages. […]

[1] = curve of first compound, second compound 0.1 µM
[2] = curve of first compound, second compound 0.316 µM
[3] = curve of first compound, second compound 1 µM
[4] = curve of first compound, second compound 3.16 µM
[5] = curve of first compound, second compound 10 µM
[6] = second compound 0.1 µM, first compound 0.0316 µM
[7] = second compound 0.1 µM, first compound 0.1 µM
[8] = second compound 0.316 µM, first compound 0.0316 µM
[9] = second compound 0.316 µM, first compound 0.1 µM
[10] = second compound 1 µM, first compound 0.0316 µM
[11] = second compound 1 µM, first compound 0.1 µM
[12] = second compound 3.16 µM, first compound 0.0316 µM
[13] = second compound 3.16 µM, first compound 0.1 µM
[14] = second compound 10 µM, first compound 0.0316 µM
[15] = second compound 10 µM, first compound 0.1 µM
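Note: spheroids exposed to agents for seven days before readout.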
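Throughout, for viability, T/C: 100% = DMSO vehicle control wells as normalization base.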

CC1COCCN1c1cc(C2(S(C)(=N)=O)CC2)nc(-c2ccnc3[nH]ccc23)n1 (configuration not stated) + NC1CCC(NC2CC2c2ccccc2)CC1
4.8 µM: IC50 [2]
4.93 µM: IC50 [4]
4.13 µM: IC50 [5]
inactive: viability, T/C [6] 107% | viability, T/C [7] 108% | viability, T/C (second compound 0.1 µM, first compound 0.316 µM) 103% | viability, T/C (second compound 0.1 µM, first compound 1 µM) 94.4% | viability, T/C (second compound 0.1 µM, first compound 3.16 µM) 64% | viability, T/C (second compound 0.1 µM, first compound 10 µM) 28.4% | viability, T/C [8] 111% | viability, T/C [9] 112% | viability, T/C (second compound 0.316 µM, first compound 0.316 µM) 94.8% | viability, T/C (second compound 0.316 µM, first compound 1 µM) 96.3% | viability, T/C (second compound 0.316 µM, first compound 3.16 µM) 59.5% | viability, T/C (second compound 0.316 µM, first compound 10 µM) 30% | viability, T/C [10] 113% | viability, T/C [11] 104% | viability, T/C (second compound 1 µM, first compound 0.316 µM) 99.6% | viability, T/C (second compound 1 µM, first compound 1 µM) 100% | viability, T/C (second compound 1 µM, first compound 3.16 µM) 77.5% | viability, T/C (second compound 1 µM, first compound 10 µM) 23.8% | viability, T/C [12] 122% | viability, T/C [13] 118% | viability, T/C (second compound 3.16 µM, first compound 0.316 µM) 117% | viability, T/C (second compound 3.16 µM, first compound 1 µM) 96.4% | viability, T/C (second compound 3.16 µM, first compound 3.16 µM) 66% | viability, T/C (second compound 3.16 µM, first compound 10 µM) 25.5% | viability, T/C [14] 131% | viability, T/C [15] 129% | viability, T/C (second compound 10 µM, first compound 0.316 µM) 110% | viability, T/C (second compound 10 µM, first compound 1 µM) 88.1% | viability, T/C (second compound 10 µM, first compound 3.16 µM) 63.8% | viability, T/C (second compound 10 µM, first compound 10 µM) 14.2%
4.99 µM: IC50 [1]
5.73 µM: IC50 [3]

COc1cc(C2c3cc4c(cc3C(OC3OC5COC(C)OC5C(O)C3O)C3COC(=O)C23)OCO4)cc(OC)c1O (configuration not stated) + NC1CCC(NC2CC2c2ccccc2)CC1
> 3 µM: IC50 [1] | IC50 [2] | IC50 [3] | IC50 [4] | IC50 [5]
inactive: viability, T/C (second compound 0.1 µM, first compound 0.00949 µM) 99.9% | viability, T/C (second compound 0.1 µM, first compound 0.03 µM) 104% | viability, T/C (second compound 0.1 µM, first compound 0.0949 µM) 94.8% | viability, T/C (second compound 0.1 µM, first compound 0.3 µM) 87.6% | viability, T/C (second compound 0.1 µM, first compound 0.949 µM) 72.2% | viability, T/C (second compound 0.1 µM, first compound 3 µM) 58.2% | viability, T/C (second compound 0.316 µM, first compound 0.00949 µM) 106% | viability, T/C (second compound 0.316 µM, first compound 0.03 µM) 108% | viability, T/C (second compound 0.316 µM, first compound 0.0949 µM) 90.7% | viability, T/C (second compound 0.316 µM, first compound 0.3 µM) 87.6% | viability, T/C (second compound 0.316 µM, first compound 0.949 µM) 77.8% | viability, T/C (second compound 0.316 µM, first compound 3 µM) 65% | viability, T/C (second compound 1 µM, first compound 0.00949 µM) 113% | viability, T/C (second compound 1 µM, first compound 0.03 µM) 127% | viability, T/C (second compound 1 µM, first compound 0.0949 µM) 108% | viability, T/C (second compound 1 µM, first compound 0.3 µM) 99.3% | viability, T/C (second compound 1 µM, first compound 0.949 µM) 91.4% | viability, T/C (second compound 1 µM, first compound 3 µM) 73.7% | viability, T/C (second compound 3.16 µM, first compound 0.00949 µM) 120% | viability, T/C (second compound 3.16 µM, first compound 0.03 µM) 105% | viability, T/C (second compound 3.16 µM, first compound 0.0949 µM) 112% | viability, T/C (second compound 3.16 µM, first compound 0.3 µM) 108% | viability, T/C (second compound 3.16 µM, first compound 0.949 µM) 98.5% | viability, T/C (second compound 3.16 µM, first compound 3 µM) 86.8% | viability, T/C (second compound 10 µM, first compound 0.00949 µM) 104% | viability, T/C (second compound 10 µM, first compound 0.03 µM) 115% | viability, T/C (second compound 10 µM, first compound 0.0949 µM) 118% | viability, T/C (second compound 10 µM, first compound 0.3 µM) 86.2% | viability, T/C (second compound 10 µM, first compound 0.949 µM) 97.5% | viability, T/C (second compound 10 µM, first compound 3 µM) 81.4%

NC1CCC(NC2CC2c2ccccc2)CC1 (configuration not stated)
> 10 µM: IC50 (compound alone, run of 02/15/2022)
inactive: viability, T/C (compound 0.316 µM) 99.4% and 101% and 110%

Cn1ncnc1C1c2n[nH]c(=O)c3cc(F)cc(c23)NC1c1ccc(F)cc1 (configuration not stated) + NC1CC1c1ccc(-c2cccc(O)c2)cc1
> 0.1 µM: IC50 [1] | IC50 [2] | IC50 [3] | IC50 [4] | IC50 [5]
inactive: viability, T/C (second compound 0.1 µM, first compound 0.000316 µM) 105% | viability, T/C (second compound 0.1 µM, first compound 0.001 µM) 114% | viability, T/C (second compound 0.1 µM, first compound 0.00316 µM) 94.9% | viability, T/C (second compound 0.1 µM, first compound 0.01 µM) 100% | viability, T/C [6] 108% | viability, T/C [7] 125% | viability, T/C (second compound 0.316 µM, first compound 0.000316 µM) 113% | viability, T/C (second compound 0.316 µM, first compound 0.001 µM) 114% | viability, T/C (second compound 0.316 µM, first compound 0.00316 µM) 117% | viability, T/C (second compound 0.316 µM, first compound 0.01 µM) 100% | viability, T/C [8] 93.7% | viability, T/C [9] 105% | viability, T/C (second compound 1 µM, first compound 0.000316 µM) 102% | viability, T/C (second compound 1 µM, first compound 0.001 µM) 112% | viability, T/C (second compound 1 µM, first compound 0.00316 µM) 120% | viability, T/C (second compound 1 µM, first compound 0.01 µM) 109% | viability, T/C [10] 111% | viability, T/C [11] 106% | viability, T/C (second compound 3.16 µM, first compound 0.000316 µM) 119% | viability, T/C (second compound 3.16 µM, first compound 0.001 µM) 123% | viability, T/C (second compound 3.16 µM, first compound 0.00316 µM) 101% | viability, T/C (second compound 3.16 µM, first compound 0.01 µM) 107% | viability, T/C [12] 114% | viability, T/C [13] 124% | viability, T/C (second compound 10 µM, first compound 0.000316 µM) 108% | viability, T/C (second compound 10 µM, first compound 0.001 µM) 101% | viability, T/C (second compound 10 µM, first compound 0.00316 µM) 104% | viability, T/C (second compound 10 µM, first compound 0.01 µM) 100% | viability, T/C [14] 100% | viability, T/C [15] 99.8%
